From patent US20250230193A1, “CYCLIC COMPOUND HAVING SELECTIVE KRAS INHIBITORY EFFECT ON HRAS AND NRAS” (CHUGAI SEIYAKU KABUSHIKI KAISHA, priority 2022, published 2025)
Where a SMILES comes first, the peptide text is derived from it. Bridges are numbered along the chain shown (N, C = ends). [ ]: non-standard residue; d: D form. hPhe(3-Cl-4-CF3) = N[C@@H](CCc1ccc(C(F)(F)F)c(Cl)c1)C(=O)O; NPrPhe(4-CF3) = CCCN[C@@H](Cc1ccc(C(F)(F)F)cc1)C(=O)O; NMeGly(cPent) = CN[C@H](C(=O)O)C1CCCC1; NMeL = CN[C@@H](CC(C)C)C(=O)O; Aze = O=C(O)[C@@H]1CCN1; Ac4c = NC1(C(=O)O)CCC1; Sar = CNCC(=O)O

Assays:
[1] = target: GDP-bound NRAS wild-type protein (Homo sapiens, UniProt P01111); test: Binding to NRAS by surface plasmon resonance (SPR), Single Cycle Kinetics
GDP-bound NRAS wild-type protein, sequence (P01111 whole entry): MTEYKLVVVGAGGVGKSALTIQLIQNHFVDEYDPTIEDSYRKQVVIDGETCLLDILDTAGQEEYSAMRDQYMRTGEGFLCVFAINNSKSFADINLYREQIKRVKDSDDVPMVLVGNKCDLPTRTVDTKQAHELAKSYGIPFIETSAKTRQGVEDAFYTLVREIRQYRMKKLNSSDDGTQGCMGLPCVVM

[2] = target: GDP-bound HRAS wild-type protein (Homo sapiens, UniProt P01112); test: Binding to HRAS by surface plasmon resonance (SPR), Single Cycle Kinetics
GDP-bound HRAS wild-type protein, sequence (P01112 whole entry): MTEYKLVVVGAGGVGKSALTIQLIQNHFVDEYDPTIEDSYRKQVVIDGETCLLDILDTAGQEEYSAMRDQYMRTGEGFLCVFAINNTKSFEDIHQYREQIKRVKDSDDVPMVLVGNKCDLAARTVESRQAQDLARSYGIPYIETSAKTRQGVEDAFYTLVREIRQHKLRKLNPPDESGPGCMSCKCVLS

[3] = KD ratio NRAS/KRAS, class symbols
[4] = KD ratio HRAS/KRAS, class symbols
[5] = SPR, GDP-bound NRAS wild-type vs GDP-bound KRAS wild-type
[6] = SPR, GDP-bound HRAS wild-type vs GDP-bound KRAS wild-type
[7] = KD ratio, GDP-bound NRAS wild-type vs GDP-bound KRAS wild-type, SPR
[8] = KD ratio, GDP-bound HRAS wild-type vs GDP-bound KRAS wild-type, SPR

Compound: CCO[C@@H]1C[C@H]2C(=O)NC3(CC(C)(C)C3)C(=O)N(C)[C@@H](C3CCCC3)C(=O)N(C)[C@H](C(=O)N3CCCCC3)CC(=O)N(C)[C@@H](COC)C(=O)N[C@@H]([C@@H](C)CC)C(=O)N(C)CC(=O)N(C)[C@H]3C/C=C\CCN(C3=O)[C@@H](Cc3ccc(C(F)(F)F)cc3)C(=O)N(C)CC(=O)N[C@@H](CCc3ccc(Cl)c(Cl)c3)C(=O)N2C1 [PP2670]
- NRAS/KRAS (ratio of KD value with respect to GDP-bound NRAS wild-type protein to KD value with respect to KRAS) [1, 3]: AA (a compound having 20 or more is denoted as AA)
- HRAS/KRAS (ratio of KD value with respect to GDP-bound HRAS wild-type protein to KD value with respect to KRAS) [2, 4]: A (a compound having 10 or more and less than 20 is denoted as A)

Compound: CCC[C@H]1C(=O)N[C@@H]([C@@H](C)CC)C(=O)N(C)CC(=O)N(C)[C@H]2C/C=C\CCN(C2=O)[C@@H](Cc2ccc(C)cc2)C(=O)N(C)CC(=O)N[C@@H](CCc2ccc(C(F)(F)F)c(OC)c2)C(=O)N2C[C@H](OCC)C[C@H]2C(=O)NC2(CC(C)(C)C2)C(=O)N(C)[C@@H](C(CC)CC)C(=O)N(C)[C@H](C(=O)N(C)C)CC(=O)N1C [PP2068]
- NRAS/KRAS (ratio of KD value with respect to NRAS to KD value with respect to KRAS) [1, 5]: A (a compound having 10 or more and less than 20 is denoted as A)
- HRAS/KRAS (ratio of KD value with respect to HRAS to KD value with respect to KRAS) [2, 6]: B (a compound having 3 or more and less than 10 is denoted as B)

Compound: CCCN(C)C(=O)[C@@H]1CC(=O)N(C)[C@@H](COC)C(=O)N[C@@H]([C@@H](C)CC)C(=O)N(C)CC(=O)N(C)[C@H]2C/C=C\CCN(C2=O)[C@@H](Cc2ccc(C(F)(F)F)cc2)C(=O)N(C)CC(=O)N[C@@H](CCc2cc(F)c(Cl)c(F)c2)C(=O)N2C[C@H](OCC)C[C@H]2C(=O)NC2(CC(C)(C)C2)C(=O)N(C)[C@@H](C2CCCC2)C(=O)N1C [PP1763]
- NRAS/KRAS (ratio of KD value for NRAS to KD value for KRAS) [1, 7]: A (a compound having 10 or more and less than 20 is denoted as A)
- HRAS/KRAS (ratio of KD value for HRAS to KD value for KRAS) [2, 8]: A (a compound having 10 or more and less than 20 is denoted as A)

Compound: CCO[C@@H]1C[C@H]2C(=O)NC3(CC(C)(C)C3)C(=O)N(C)[C@@H](C(CC)CC)C(=O)N(C)[C@H](C(=O)N(C)C)CC(=O)N(C)[C@@H](C(C)C)C(=O)N[C@@H]([C@@H](C)CC)C(=O)N(C)CC(=O)N(C)[C@H]3C/C=C\CCN(C3=O)[C@@H](Cc3ccc(C(F)(F)F)cc3)C(=O)N(C)CC(=O)N[C@@H](CCc3ccc(C(F)(F)F)c(OC)c3)C(=O)N2C1 [PP2165]
- NRAS/KRAS (ratio of KD value with respect to NRAS to KD value with respect to KRAS) [1, 5]: A (a compound having 10 or more and less than 20 is denoted as A)
- HRAS/KRAS (ratio of KD value with respect to HRAS to KD value with respect to KRAS) [2, 6]: A (a compound having 10 or more and less than 20 is denoted as A)

Compound: CCC[C@H]1C(=O)N[C@@H]([C@@H](C)CC)C(=O)N(C)CC(=O)N(C)[C@H]2C/C=C\CCN(C2=O)[C@@H](Cc2ccc(C(F)(F)F)cc2)C(=O)N(C)CC(=O)N[C@@H](CCc2ccc(C(F)(F)F)c(OC)c2)C(=O)N2C[C@H](OCC)C[C@H]2C(=O)NC2(CC(C)(C)C2)C(=O)N(C)[C@@H](CC(C)(C)C)C(=O)N(C)[C@H](C(=O)N(C)C)CC(=O)N1C [PP2734]
- NRAS/KRAS (ratio of KD value with respect to GDP-bound NRAS wild-type protein to KD value with respect to KRAS) [1, 3]: A (a compound having 10 or more and less than 20 is denoted as A)
- HRAS/KRAS (ratio of KD value with respect to GDP-bound HRAS wild-type protein to KD value with respect to KRAS) [2, 4]: B (a compound having 3 or more and less than 10 is denoted as B)

Compound: CC[C@H](C)[C@@H]1NC(=O)[C@H](CC(C)C)N(C)C(=O)C[C@@H](C(=O)N2CCOCC2)N(C)C(=O)[C@H](C2CCCC2)N(C)C(=O)C2(CCCCC2)NC(=O)[C@@H]2CCCN2C(=O)[C@H](CCc2cc(F)c(C(F)(F)F)c(F)c2)NC(=O)CN(C)C(=O)[C@H](Cc2ccc(C(F)(F)F)cc2)N2CCCC[C@@H](C2=O)N(C)C(=O)CN(C)C1=O [PP0561]
- NRAS/KRAS (ratio of KD value with respect to GDP-bound NRAS wild-type protein to KD value with respect to KRAS) ([1]; KD ratio NRAS/KRAS, SPR): B (a compound having 3 or more and less than 10 is denoted as B)
- HRAS/KRAS (ratio of KD value with respect to GDP-bound HRAS wild-type protein to KD value with respect to KRAS) ([2]; KD ratio HRAS/KRAS, SPR): B (a compound having 3 or more and less than 10 is denoted as B)

Compound: CC[C@H](C)[C@@H]1NC(=O)[C@H](CC(C)C)N(C)C(=O)C[C@@H](C(=O)N2CCOCC2)N(C)C(=O)[C@H](C2CCCC2)N(C)C(=O)C2(CCC2)NC(=O)[C@@H]2C[C@@H](O)CN2C(=O)[C@H](CCc2cc(F)c(C(F)(F)F)c(F)c2)NC(=O)CN(C)C(=O)[C@H](Cc2ccc(C(F)(F)F)cc2)N2CCCCC[C@@H](C2=O)N(C)C(=O)CN(C)C1=O [PP0871]
- NRAS/KRAS (ratio of KD value with respect to NRAS to KD value with respect to KRAS) [1, 7]: B (a compound having 3 or more and less than 10 is denoted as B)
- HRAS/KRAS (ratio of KD value with respect to HRAS to KD value with respect to KRAS) [2, 8]: B (a compound having 3 or more and less than 10 is denoted as B)

Compound: CCC[C@H]1C(=O)N[C@@H]([C@@H](C)CC)C(=O)N(C)CC(=O)N(C)[C@H]2C/C=C\CCN(C2=O)[C@@H](Cc2ccc(C)cc2)C(=O)N(C)CC(=O)N[C@@H](CCc2ccc(Cl)c(Cl)c2)C(=O)N2C[C@H](OCC)C[C@H]2C(=O)NC2(CC(C)(C)C2)C(=O)N(C)[C@@H](CC2CCC2)C(=O)N(C)[C@H](C(=O)N(C)C)CC(=O)N1C [PP2755]
- NRAS/KRAS (ratio of KD value with respect to GDP-bound NRAS wild-type protein to KD value with respect to KRAS) [1, 3]: A (a compound having 10 or more and less than 20 is denoted as A)
- HRAS/KRAS (ratio of KD value with respect to GDP-bound HRAS wild-type protein to KD value with respect to KRAS) [2, 4]: A (a compound having 10 or more and less than 20 is denoted as A)

Compound: CCCN1C(=O)CN(C)C(=O)[C@@H]2CCN2C(=O)[C@H]([C@@H](C)CC)NC(=O)[C@H](CC(C)C)N(C)C(=O)C[C@@H](C(=O)N(C)C)NC(=O)[C@H](C2CCCC2)N(C)C(=O)C2(CCC2)NC(=O)[C@@H]2CCCN2C(=O)[C@H](CCc2ccc(C(F)(F)F)c(Cl)c2)NC(=O)CN(C)C(=O)[C@@H]1Cc1ccc(C(F)(F)F)cc1 [PP0374] ([NMeL]I[Aze][Sar][NPrPhe(4-CF3)][Sar][hPhe(3-Cl-4-CF3)]P[Ac4c][NMeGly(cPent)]D-NMe2; lactam N-11)
- NRAS/KRAS (ratio of KD for GDP-bound NRAS wild-type to KD for KRAS) ([1]; KD ratio NRAS/KRAS, SPR): B (a compound having 3 or more and less than 10 is denoted as B)
- HRAS/KRAS (ratio of KD for GDP-bound HRAS wild-type to KD for KRAS) ([2]; KD ratio HRAS/KRAS, SPR): B (a compound having 3 or more and less than 10 is denoted as B)

Compound: CCC[C@H]1C(=O)N[C@@H]([C@@H](C)CC)C(=O)N2CCC[C@H]2C(=O)N(C)[C@H]2C/C=C\CCN(C2=O)[C@@H](Cc2ccc(C(F)F)cc2)C(=O)N(C)CC(=O)N[C@@H](CCc2ccc(Cl)c(Cl)c2)C(=O)N2C[C@H](OC(C)C)C[C@H]2C(=O)NC2(CC(C)(C)C2)C(=O)N(C)[C@@H](C(CC)CC)C(=O)N(C)[C@H](C(=O)N(C)C)CC(=O)N1C [PP2640]
- NRAS/KRAS (ratio of KD value with respect to GDP-bound NRAS wild-type protein to KD value with respect to KRAS) [1, 3]: AA (a compound having 20 or more is denoted as AA)
- HRAS/KRAS (ratio of KD value with respect to GDP-bound HRAS wild-type protein to KD value with respect to KRAS) [2, 4]: A (a compound having 10 or more and less than 20 is denoted as A)

Compound: CCO[C@@H]1C[C@H]2C(=O)NC3(CCC3)C(=O)N(C)[C@@H](C3CCCCC3)C(=O)N(C)[C@H](C(=O)N(C)C)CC(=O)N(C)[C@@H](CC)C(=O)N[C@@H]([C@@H](C)CC)C(=O)N(C)CC(=O)N(C)[C@H]3C/C=C\CCN(C3=O)[C@@H](Cc3ccc(C(F)(F)F)cc3)C(=O)N(C)CC(=O)N[C@@H](CCc3cc(F)c(C(F)(F)F)c(F)c3)C(=O)N2C1 [PP1086]
- NRAS/KRAS (ratio of KD value with respect to NRAS to KD value with respect to KRAS) [1, 7]: AA (a compound having 20 or more is denoted as AA)
- HRAS/KRAS (ratio of KD value with respect to HRAS to KD value with respect to KRAS) [2, 8]: A (a compound having 10 or more and less than 20 is denoted as A)

Compound: CCC(CC)[C@H]1C(=O)N(C)[C@H](C(=O)N2CCCCC2)CC(=O)N(C)[C@@H](COC)C(=O)N[C@@H]([C@@H](C)CC)C(=O)N(C)CC(=O)N(C)[C@H]2C/C=C\CCN(C2=O)[C@@H](Cc2ccc(C(F)(F)F)cc2)C(=O)N(C)CC(=O)N[C@@H](CCc2cc(F)c(C(F)(F)F)c(F)c2)C(=O)N2C[C@H](OC(C)C)C[C@H]2C(=O)NC2(CC(C)(C)C2)C(=O)N1C [PP2608]
- NRAS/KRAS (ratio of KD value with respect to GDP-bound NRAS wild-type protein to KD value with respect to KRAS) [1, 3]: AA (a compound having 20 or more is denoted as AA)
- HRAS/KRAS (ratio of KD value with respect to GDP-bound HRAS wild-type protein to KD value with respect to KRAS) [2, 4]: A (a compound having 10 or more and less than 20 is denoted as A)

Compound: CCO[C@@H]1C[C@H]2C(=O)NC3(CC(C)(C)C3)C(=O)N(C)[C@@H](C3CCCC3)C(=O)N(C)[C@H](C(=O)N(C)CC)CC(=O)N(C)[C@@H](COC)C(=O)N[C@@H]([C@@H](C)CC)C(=O)N(C)CC(=O)N(C)[C@H]3C/C=C\CCN(C3=O)[C@@H](Cc3ccc(C(F)(F)F)cc3)C(=O)N(C)CC(=O)N[C@@H](CCc3ccc(Cl)c(Cl)c3)C(=O)N2C1 [PP2835]
- NRAS/KRAS (ratio of KD value with respect to GDP-bound NRAS wild-type protein to KD value with respect to KRAS) [1, 3]: A (a compound having 10 or more and less than 20 is denoted as A)
- HRAS/KRAS (ratio of KD value with respect to GDP-bound HRAS wild-type protein to KD value with respect to KRAS) [2, 4]: A (a compound having 10 or more and less than 20 is denoted as A)

Compound: CCC[C@H]1C(=O)N[C@@H]([C@@H](C)CC)C(=O)N(C)CC(=O)N(C)[C@H]2C/C=C\CCN(C2=O)[C@@H](Cc2ccc(C)cc2)C(=O)N(C)CC(=O)N[C@@H](CCc2ccc(C(F)(F)F)c(Cl)c2)C(=O)N2C[C@H](OCC)C[C@H]2C(=O)NC2(CC(C)(C)C2)C(=O)N(C)[C@@H](CC(F)(F)F)C(=O)N(C)[C@H](C(=O)N(C)C)CC(=O)N1C [PP2226]
- NRAS/KRAS (ratio of KD value with respect to NRAS to KD value with respect to KRAS) [1, 5]: A (a compound having 10 or more and less than 20 is denoted as A)
- HRAS/KRAS (ratio of KD value with respect to HRAS to KD value with respect to KRAS) [2, 6]: A (a compound having 10 or more and less than 20 is denoted as A)
